From patent publication US12102685B2, “Immodulator peptides covalently modified with small molecules” (priority 2020, dated 2024)
Marks after values point to notes of the source that are not given here. Peptide text beside a SMILES is read from it.

What was measured:
rat scald model = assay: Rat scald model, nephrilin plus or minus metal (x5A); format: in vivo, Sprague Dawley rats; conditions: male rats, burn, 4 mg/kg sc once daily days 1-7
Procedure: Experiment x5A. Nephrilin peptide (IM3N1) is a designed inhibitor of Rictor complex (also known as mTORC2), an evolutionarily conserved assembly believed to modulate responses to cellular stress. […] This study explores the effect of nephrilin plus iron formulations on clinically relevant outcomes in the rat scald model. Animals were treated with nephrilin by subcutaneous bolus injection on days 1-7 post-burn. Equimolar ferric iron in the formulation improved the positive systemic effects of nephrilin on kidney function, glycemic control, oxidative stress, early hyperinflammation, late inflammasome activation, hyperangiogenesis and body mass, all variables previously shown to bear upon clinically relevant burn injury outcomes. The rat scald model and measurement of clinically relevant variables are disclosed in U.S. Pat. No. 10,369,191. Adult Sprague Dawley rats of both sexes (250-300 gm, Charles River Laboratories, Wilmington, MA, USA) were injected with nephrilin peptide plus or minus equimolar metal (zinc, ferrous iron or ferric iron) once daily by subcutaneous bolus injection, days 1-7; Treatment group sizes were (n=8) for each sex unless otherwise indicated: group S=sham-treated; group B=burn+vehicle; group N1=burn+4 mg/kg nephrilin; group N1/Zn2=burn+4 mg/kg nephrilin/zinc chloride; group N1/Fe2=burn+4 mg/kg nephrilin/ferrous sulphate; groups N1/Fe3 (2, 4 or 8)=burn+2, 4, or 8 mg/kg nephrilin/equimolar ferric chloride. The first dose was administered after completion of the scald procedure. Injection volume was 400 uL. Control animals received the same volume of vehicle.
To make global comparisons of treatment efficacy, we converted values to z-scores. All scores within an efficacy class were averaged, allowing allocation of equal weight to efficacy classes. A composite z-score (average z score across all 7 effect classes) is shown in the last row of the table. This allows direct comparison of efficacy across treatment groups. The sham treatment involves manipulating the animals exactly as in the burn group, but without the burn treatment. The efficacy value for the sham (0.82) is thus the positive control. The negative control is the Burn+vehicle group (−0.61). […] Compared to vehicle or nephrilin treatment alone (−0.31), nephrilin with ferric iron (0.27) is at least twice as efficacious overall. Male rats in the scald model were exposed to vehicle, 2, 4 and 8 mg/kg nephrilin complexed with ferric iron.

THP1-Dual monocytes = assay: Succinic acid in THP1-Dual supernatant (x4A); format: cell-based
Procedure: (§1) Immune modulation functions of immodulator peptides were measured using the monocyte reporter cell line THP1-Dual (Invivogen, San Diego, CA), which provides convenient readouts for STING and NF-kappa-B pathways. Optionally, succinic acid, cytokine and chemokine production were also measured. THP1-Dual cell line was obtained from Invivogen. Cells were grown in a T-75 flask in RPMI Medium containing 20% fetal bovine serum, blasticidin ([…]), zeocin ([…]) and penicillin-streptomycin at 37° C. in a humidified, 5% CO2 incubator. Cells ([…], 8,000 cells/well) were plated in a 96-well plate and incubated overnight at 37 °C in a humidified, 5% CO2 incubator. Next day, […] of compounds were added (quadruplicate wells). After 24 hour incubation with the compound, supernatants were harvested and stored at 4° C. prior to assay.
(§2) STING activity using reagents QuantiBlu and QuantiLuc respectively, according to the manufacturer's recommendations (Invivogen, San Diego, CA). Succinic acid was measured by using a kit from Megazyme Inc (Cambridge, MA). Control value of activity was set to 100 in each assay. […] PAM3C=25 ng/ml PAM3CSK4 (TLR1/2 inducer); Poly(I:C)=10 ug/ml (TLR3 inducer); PAM2C=25 ng/ml PAM2CSK4 (TLR2/6 inducer); KIN14=4 uM KIN-1400 (RIG-I inducer); cytB=1 uM cytosporone B (Nur77 inducer); C-178=1 uM STING inhibitor; NFkBi=50 ug/ml NFkB inhibitor peptide; SB2021=10 uM p38MAPK inhibitor; *p<0.05, **p<0.01 vs IM3 control; #p<0.01 vs “no inducer” control; SUCC=succinic acid; nd=not done; Peptide was added to cells at 400 nM.
(§3) Peptides were added to cells at 400 nM. […]

STING = assay: THP1-Dual monocyte reporter, STING readout (x4A); format: cell-based
Procedure: as §1
Each cell supernatant was assayed in quadruplicate. 20 uL of supernatant was used to measure NF-kappa-B (NFkB) and
as §2, §3

[1] = IM3 / FITC-PI(4,5)P2 binding on metal-charged NTA plates (x9C)
Procedure: NTA-coated 96-well plates were charged with either 500 uM zinc chloride or 500 uM ferric chloride and washed. Immodulator peptide IM3 (100 ng/well) and FITC-PI(4,5)P2 (50 ng/well) were added, with or without 2 ug/well cold PPI, and incubated at room temperature for 60 minutes. The plate was washed and counted in a fluorometer.

[2] = peptide 400 nM + KIN1400 (= 100)
[3] = peptide 400 nM + KIN1400 + C-178 1 uM
[4] = peptide 400 nM + KIN1400 + NFkBi 50 ug/ml
[5] = peptide 400 nM + KIN1400 + SB2021 10 uM
[6] = peptide 400 nM + KIN1400 + cytB 1 uM
[7] = peptide 400 nM + PAM2C + C-178 1 uM
[8] = peptide 400 nM + PAM2C + NFkBi 50 ug/ml
[9] = peptide 400 nM + PAM2C + SB2021 10 uM
[10] = peptide 400 nM + PAM2C + cytB 1 uM
[11] = peptide 400 nM + PAM3C + C-178 1 uM
[12] = peptide 400 nM + PAM3C + NFkBi 50 ug/ml
[13] = peptide 400 nM + PAM3C + SB2021 10 uM
[14] = peptide 400 nM + PAM3C + cytB 1 uM

With “RGVTEDYLRLETLVQKVVSKGFYKKKQCRPSKGRKRGFCW [IM3N1]” the “1: early inflammation (24-hr plasma IL-6)” value (rat scald model) was 50.6 ± 6.1 pg/mL, the “2a: 14-day plasma inflammasome marker IL18” value (rat scald model) was 178.1 ± 19.3 pg/mL and the “2b: 14-day plasma inflammasome marker IL1b” value (rat scald model) was 124.3 ± 132 pg/mL. The “3a: 14-day plasma hyperangiogenesis marker VEGF-A” value (rat scald model) was 56.1 ± 11.7 pg/mL, the “3b: 14-day plasma hyperangiogenesis marker CCL5” value (rat scald model) was 609.7 ± 283 pg/mL and the “3c: 14-day plasma hyperangiogenesis marker CXCL5” value (rat scald model) was 1910 ± 380 pg/mL. The “4: glycemic control, 14-day GTT (AUC)” value (rat scald model) was 139.3 ± 48.6 mg·dL·h, the “5: kidney function, 14-day plasma creatinine” value (rat scald model) was 0.34 ± 0.13 mg/dL and the “6: systemic oxidative stress, 14-day plasma OHDG” value (rat scald model) was 585 ± 137 pg/mL. For the same compound, the “7: weight loss (slope)” value (rat scald model) was 2.32 ± 1.01, the “3d: hyperangiogenesis marker PctRedPix” value (rat scald model) was 16.51 ± 3.02 and the “Avg: composite z-score (average z score across all 7 effect classes)” value (rat scald model; listed as N1, 4 mg/kg) was −0.31 ± 0.35. For the same compound, the “Avg: composite z-score (average z score across all 7 effect classes)” value (rat scald model; listed as nephrilin, 4 mg/kg) was −0.31.

Compound `N=C(N)NCCC[C@H](NC(=O)CNC(=O)[C@H](CCCCN)NC(=O)[C@H](CO)NC(=O)[C@@H]1CCCN1C(=O)[C@H](CCCNC(=N)N)NC(=O)[C@H](CS)NC(=O)[C@H](CCC(N)=O)NC(=O)[C@H](CCCCN)NC(=O)[C@H](CCCCN)NC(=O)[C@H](CCCCN)NC(=O)[C@H](Cc1ccc(O)cc1)NC(=O)[C@H](Cc1ccccc1)NC(=O)CNC(=O)[C@H](CCCCN)NC(=O)[C@@H](N)CCCCN)C(=O)N[C@@H](CCCCN)C(=O)N[C@@H](CCCNC(=N)N)C(=O)NCC(=O)N[C@@H](Cc1ccccc1)C(=O)N[C@@H](CS)C(=O)N[C@@H](Cc1c[nH]c2ccccc12)C(=O)O` [IM3] (H-KKGFYKKKQCRPSKGRKRGFCW-OH; N-terminus and C-terminus assumed) has an SUCC (THP1-Dual monocytes; [2]) of 100, an SUCC (THP1-Dual monocytes; [3]) of 103.2 and an SUCC (THP1-Dual monocytes; [4]) of 99.2. For the same compound, the SUCC (THP1-Dual monocytes; [5]) was 131.6*, the SUCC (THP1-Dual monocytes; [6]) was 96.1 and the SUCC (THP1-Dual monocytes; peptide 400 nM + PAM2C (= 100)) was 100. The SUCC (THP1-Dual monocytes; [7]) was 96.1, the SUCC (THP1-Dual monocytes; [8]) was 100.1 and the SUCC (THP1-Dual monocytes; [9]) was 93.4. The SUCC (THP1-Dual monocytes; [10]) was 85.1*, the SUCC (THP1-Dual monocytes; peptide 400 nM + PAM3C) was 100 and the SUCC (THP1-Dual monocytes; [11]) was 95.3. For the same compound, the SUCC (THP1-Dual monocytes; [12]) was 101.5, the SUCC (THP1-Dual monocytes; [13]) was 95.8 and the SUCC (THP1-Dual monocytes; [14]) was 95.4. The STING (STING; [2]) was 100, the STING (STING; [3]) was 81.1** and the STING (STING; [4]) was 105.0. For the same compound, the STING (STING; [5]) was 75.6**, the STING (STING; [6]) was 87.5* and the STING (STING; peptide 400 nM + PAM2C (= 100)) was 100. The STING (STING; [7]) was 62.0**, the STING (STING; [8]) was 119.1* and the STING (STING; [9]) was 18.9**. For the same compound, the STING (STING; [10]) was 96.5, the STING (STING; [11]) was 566** and the STING (STING; [12]) was 1294**. For the same compound, the STING (STING; [13]) was 274**, the STING (STING; [14]) was 1318** and the STING (STING; peptide 400 nM + PAM3C, control = 100) was 1474. The STING (STING; peptide 400 nM, no inducer, control = 100) was 91**, the “fluorescence, FITC-PI(4,5)P2” value ([1]; Ferric iron, cold PI(3)P1 2 ug/well) was 78.5 ± 5.8 and the “fluorescence, FITC-PI(4,5)P2” value ([1]; Ferric iron, cold PI(3,5)P2 2 ug/well) was 100.0 ± 3.2. The “fluorescence, FITC-PI(4,5)P2” value ([1]; Ferric iron, no cold PPI) was 80.1 ± 1.8, the “fluorescence, FITC-PI(4,5)P2” value ([1]; No metal, no cold PPI, IM3 100 ng/well) was 0.0 ± 0.2 and the “fluorescence, FITC-PI(4,5)P2” value ([1]; Zinc, no cold PPI) was 2.2 ± 0.3.
